Laboratory results published in patent US12338253B2, “Nitrogen-containing polycyclic fused ring compound, pharmaceutical composition thereof, preparation method therefor and use thereof” (APPLIED PHARMACEUTICAL SCIENCE, INC., priority 2019, dated 2025).

Legend:
[1] = tested on: Ba/F3 cell KIF5B-RET-V804M fusion xenograft model; test: Pharmacodynamic test on Ba/F3 cell KIF5B-RET-V804M fusion xenograft model; assay type: in vivo, BALB/c nude mice; conditions: 10 mg/kg; for Tumor growth inhibition rate: oral, twice a day, end of the control experiment (day 8 of the administration); for tumor volume compared with the selpercatinib group: p<0.05
RET V804M = RET V804M (Homo sapiens (Human), UniProt P07949, V804M); test: HTRF kinase activity test, RET V804M; assay type: biochemical; conditions: for IC50: HTRF KinEASE-TK; for inhibitory activity on RET V804M compared with cabozantinib: comparison in words
[2] = tested on: TT cell human medullary thyroid carcinoma xenograft model; test: Pharmacodynamic test on TT cell human medullary thyroid carcinoma xenograft model; assay type: in vivo, mice; conditions: 10 mg/kg, oral, twice a day, 28 consecutive days
Method: TT tumor cells were cultured in F12K medium containing inactivated 10% fetal bovine serum, 100 U/mL penicillin, 100 μg/mL streptomycin and 2 mM glutamine in an incubator at 37° C. and 5% CO2. The cells were cultured at a starting concentration of 1×10^6 cells/mL, and divided and transferred to flasks for sub-culture every 3 to 4 days when they were overgrown. The tumor cells in the logarithmic growth phase were used for tumor inoculation in vivo.
The TT tumor cells resuspended in serum-free F12K medium at a concentration of 1×10^7 cells+gel/100 μL were inoculated subcutaneously into the right flank of experimental animals. When the tumor grew to about 224 mm^3, the compounds were administered in groups, with 6 animals in each group.
The mice were orally administered with the test compound twice a day for 28 consecutive days.
Tumor volume: the long and short diameters of the tumor were measured using a vernier caliper. The volume was calculated by the formula: volume=0.5×long diameter×short diameter^2. Animals were required to have their body weight and tumor size measured twice a week during the administration.
Reaction of animals after the administration: the experimental animals were weighed while measuring the tumors. The relationship between the change in the animal weight and the time of administration was recorded. At the same time, the survival and health of the mice, such as animal activity, feeding and other general states during the administration were observed.
Relative tumor proliferation rate T/C (%)=TRTV/CRTV×100% (TRTV: treatment group RTV; CRTV: negative control group RTV), where the relative tumor volume (RTV) is calculated as: RTV=Vt/V0, where V0 is the tumor volume measured at the time of group administration (that is, day 1 of the administration), and Vt is the tumor volume at each measurement. Tumor growth inhibition rate TGI (%)=(1−T/C)×100%.

TT Cell = test: TT cell activity test (CelltiterGlo, 72 h); assay type: cell-based, human; conditions: for IC50: Homo sapiens, TT cell line, 72 h, CTG; for inhibitory activity on TT cells compared with cabozantinib: comparison in words
Method: 2.3 Data Processing % Inhibition (inhibition rate)=100*(HC−test compound well reading)/(HC−LC) • High control (HC, reading control without inhibition): 0.5% DMSO • Low control (LC, control with compound inhibition): 1 μM CEP-32496
The IC50 values were calculated using GraphPad Prism 6 software. Y=Bottom+(Top−Bottom)/(1+10^((Log IC50−X)*HillSlope)); • X: log of cpd concentration; • Y: % inhibition; • Top and Bottom: plateaus in same units as Y; • Log IC50: same log units as X; and • HillSlope: slope factor The Cell Results are Shown in Table 5: […]

RET wt = RET wt (Homo sapiens (Human), UniProt P07949); test: HTRF kinase activity test, RET wt; assay type: biochemical; conditions: for IC50: HTRF KinEASE-TK; for inhibitory activity on RET wt compared with cabozantinib: comparison in words
RET G810R = RET G810R (Homo sapiens (Human), UniProt P07949, G810R); test: HTRF kinase activity test, RET G810R; assay type: biochemical; conditions: for IC50: HTRF KinEASE-TK; for inhibitory activity on RET G810R compared with cabozantinib and selpercatinib (LOXO-292): comparison in words
[3] = end of the experiment (day 14 of the administration)

Chain of RET wt (P07949 29-1114): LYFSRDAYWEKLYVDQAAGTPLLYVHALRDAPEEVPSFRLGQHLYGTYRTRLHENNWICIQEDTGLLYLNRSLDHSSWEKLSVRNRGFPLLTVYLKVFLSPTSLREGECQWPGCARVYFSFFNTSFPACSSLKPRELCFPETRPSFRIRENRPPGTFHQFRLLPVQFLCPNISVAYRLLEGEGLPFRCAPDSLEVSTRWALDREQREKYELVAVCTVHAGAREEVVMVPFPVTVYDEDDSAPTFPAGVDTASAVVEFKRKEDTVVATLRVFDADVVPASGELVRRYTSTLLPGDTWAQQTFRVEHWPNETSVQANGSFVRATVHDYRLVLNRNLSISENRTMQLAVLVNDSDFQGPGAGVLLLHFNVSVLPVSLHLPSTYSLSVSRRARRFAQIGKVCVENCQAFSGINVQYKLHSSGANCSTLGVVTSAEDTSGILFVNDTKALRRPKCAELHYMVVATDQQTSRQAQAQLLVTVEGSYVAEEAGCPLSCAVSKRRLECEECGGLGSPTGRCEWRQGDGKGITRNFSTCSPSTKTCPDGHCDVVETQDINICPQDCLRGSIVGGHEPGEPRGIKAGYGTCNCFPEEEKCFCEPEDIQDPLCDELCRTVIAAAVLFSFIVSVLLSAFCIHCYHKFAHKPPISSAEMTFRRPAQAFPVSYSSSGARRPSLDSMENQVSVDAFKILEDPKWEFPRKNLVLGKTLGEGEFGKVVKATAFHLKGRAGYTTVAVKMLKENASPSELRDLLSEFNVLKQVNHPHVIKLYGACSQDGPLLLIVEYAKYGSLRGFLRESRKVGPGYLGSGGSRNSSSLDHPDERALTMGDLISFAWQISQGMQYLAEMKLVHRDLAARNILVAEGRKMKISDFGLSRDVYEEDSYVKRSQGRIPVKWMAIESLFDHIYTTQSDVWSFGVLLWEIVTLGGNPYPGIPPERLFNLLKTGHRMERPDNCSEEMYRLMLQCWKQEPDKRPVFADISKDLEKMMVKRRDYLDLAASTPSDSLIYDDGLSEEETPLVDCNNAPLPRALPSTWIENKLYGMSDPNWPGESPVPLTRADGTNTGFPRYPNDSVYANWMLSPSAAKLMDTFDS
Chain of RET V804M (P07949 29-1114 V804M): as the sequence (P07949 29-1114) above, with V776M counted along it
Chain of RET G810R (P07949 29-1114 G810R): as the sequence (P07949 29-1114) above, with G782R counted along it

Row | SMILES | Tumor growth inhibition rate [1] [%] | tumor volume compared with the selpercatinib group ([1]; day 8 of the administration) | tumor volume compared with the selpercatinib group [1, 3] | IC50 (RET V804M) [pM] | inhibitory activity on RET V804M compared with cabozantinib (RET V804M) | Tumor growth inhibition rate TGI [2] [%] | IC50 (TT Cell) [pM] | inhibitory activity on TT cells compared with cabozantinib (TT Cell) | IC50 (RET wt) [pM] | inhibitory activity on RET wt compared with cabozantinib (RET wt) | IC50 (RET G810R) [pM] | inhibitory activity on RET G810R compared with cabozantinib and selpercatinib (LOXO-292) (RET G810R)
1 | COc1ccc(CN2C3CC2CN(c2ccc(-c4cc(OCC(F)F)cn5nc6[nH]ncc6c45)cn2)C3)cn1 [Compound 32, 6-(2,2-difluoroethoxy)-4-(6-(6-((6-methoxypyridin-3-yl)methyl)-3,6-diazabicyclo[3.3.1]heptan-3-yl)pyridin-3-yl)-1H-pyrazolo[3′,4′:3,4]pyrazolo[1,5-a]pyridine] | 96 | significantly lower than that of the selpercatinib group | significantly lower than that of the selpercatinib group | 100 | significantly better than that of cabozantinib | 86.9 | 6500 | significantly better than that of cabozantinib | 100 | significantly better than that of cabozantinib | 2300 | significantly better than that of cabozantinib and selpercatinib (LOXO-292)
2 | COc1ccc(CN2C3CC2CN(c2ccc(-c4cc(OCCF)cn5nc6[nH]ncc6c45)cn2)C3)cn1 [Compound 31, 6-(2-fluoroethoxy)-4-(6-(6-((6-methoxypyridin-3-yl)methyl)-3,6-diazabicyclo[3.3.1]heptan-3-yl)pyridin-3-yl)-1H-pyrazolo[3′,4′:3,4]pyrazolo[1,5-a]pyridine] | 92 | significantly lower than that of the selpercatinib group | significantly lower than that of the selpercatinib group | 100 | significantly better than that of cabozantinib | 87.4 | 12700 | significantly better than that of cabozantinib | 100 | significantly better than that of cabozantinib | 1000 | significantly better than that of cabozantinib and selpercatinib (LOXO-292)
3 | COc1ccc(CN2C3CC2CN(c2ccc(-c4cc(OCC(C)(C)O)cn5ncc(C#N)c45)cn2)C3)cn1 [Selpercatinib(LOXO-292), Selpercatinib, reference compound] | 49 | – | – | – | – | – | – | – | – | – | – | –
4 | CCOc1cc(-c2ccc(N3CC4CC(C3)N4Cc3ccc(OC)nc3)nc2)c2c3cn[nH]c3nn2c1 [Compound 9, 6-ethoxy-4-(6-(6-((6-methoxypyridin-3-yl)methyl)-3,6-diazabicyclo[3.3.1]heptan-3-yl)pyridin-3-yl)-1H-pyrazolo[3′,4′:3,4]pyrazolo[1,5-a]pyridine] | 94 | significantly lower than that of the selpercatinib group | significantly lower than that of the selpercatinib group | 100 | significantly better than that of cabozantinib | 88.5 | 5500 | significantly better than that of cabozantinib | 200 | significantly better than that of cabozantinib | 1900 | significantly better than that of cabozantinib and selpercatinib (LOXO-292)
5 | COc1cc(-c2ccc(N3CC4CC(C3)N4Cc3ccc(OC)nc3)nc2)c2c3cn[nH]c3nn2c1 [Compound 36, 6-methoxy-4-(6-(6-((6-methoxypyridin-3-yl)methyl)-3,6-diazabicyclo[3.3.1]heptan-3-yl)pyridin-3-yl)-1H-pyrazolo[3′,4′:3,4]pyrazolo[1,5-a]pyridine] | – | – | – | 100 | significantly better than that of cabozantinib | – | 10700 | significantly better than that of cabozantinib | 200 | significantly better than that of cabozantinib | 1700 | significantly better than that of cabozantinib and selpercatinib (LOXO-292)
6 | CCCOc1cc(-c2ccc(N3CC4CC(C3)N4Cc3ccc(OC)nc3)nc2)c2c3cn[nH]c3nn2c1 [Compound 38, 4-(6-(6-((6-methoxypyridin-3-yl)methyl)-3,6-diazabicyclo[3.3.1]heptan-3-yl)pyridin-3-yl)-6-propoxy-1H-pyrazolo[3′,4′:3,4]pyrazolo[1,5-a]pyridine] | – | – | – | 100 | significantly better than that of cabozantinib | – | 10600 | significantly better than that of cabozantinib | 200 | significantly better than that of cabozantinib | 2900 | significantly better than that of cabozantinib and selpercatinib (LOXO-292)
